Data as given in patent publication US8680290B2, “Isoxazoline derivatives and their use as herbicides” (Syngenta Limited, priority 2004, dated 2014).

Test system: Monocotyledonous and dicotyledonous test plants
Assay: Example B1 herbicidal action, application pre-emergence (Table B1b)
Type: in vivo
Settings: 250 g/ha, evaluated after 4 weeks
Method: Monocotyledonous and dicotyledonous test plants were sown in seed trays in standard soil. Immediately after sowing (pre-emergence) or after 8 to 9 days cultivation (post-emergence), the test compounds were applied by spraying in the form of an aqueous solution derived from the formulation of the technical active ingredient in 0.6 ml acetone and 45 ml formulation solution containing 10.6% Emulsogen EL (CAS RN 61791-12-6), 42.2% N-methylpyrrolidone, 42.2% dipropylene glycol monomethyl ether (CAS RN 34590-94-8) and 0.2% X-77 (CAS RN 11097-66-8). The test plants were then grown in a greenhouse under optimum conditions. After a test duration of 3 weeks (post-emergence) or 4 weeks (pre-emergence), the test was evaluated (10=total damage to plant, 0=no damage to plant).

Row | SMILES | herbicidal action (damage rating 0-10), Amaranthus | herbicidal action (damage rating 0-10), Digitaria | herbicidal action (damage rating 0-10), Panicum | herbicidal action (damage rating 0-10), Setaria | herbicidal action (damage rating 0-10), Sida
1 | CC1(C)CC(S(=O)(=O)C(Br)c2ccccc2-c2ccccc2)=NO1 (stereo not drawn) [1.151] | 5 | 0 | 8 | 7 | 4
2 | Cn1nc(C(F)(F)F)c(C(C(=O)C(F)F)S(=O)(=O)C2=NOC(C)(C)C2)c1OCC(F)(F)F (stereo not drawn) [2.06] | 7 | 8 | 8 | 7 | 3
3 | CC(=O)C(c1c(C(F)(F)F)nn(C)c1OCC(F)(F)F)S(=O)(=O)C1=NOC(C)(C)C1 (stereo not drawn) [2.08] | 4 | 2 | 9 |  | 2
4 | CCOc1c(C(F)(F)S(=O)(=O)C2=NOC(C)(C)C2)c(C(F)(F)F)nn1C [2.17] | 10 | 8 | 8 | 8 | 5
5 | Cn1nc(C(F)(F)F)c(C(F)(F)S(=O)(=O)C2=NOC(C)(C)C2)c1OCC(F)F [2.21] | 10 | 10 | 10 | 10 | 8
6 | CC(=O)OC(C)=C(c1c(C(F)(F)F)nn(C)c1OCC(F)(F)F)S(=O)(=O)C1=NOC(C)(C)C1 [2.32] | 7 | 4 | 7 | 4 | 0
7 | Cc1cc(C(F)(Cl)S(=O)(=O)C2=NOC(C)(C)C2)no1 (stereo not drawn) [4.01] | 8 | 8 | 8 | 8 | 8
8 | Cc1cc(C(F)S(=O)(=O)C2=NOC(C)(C)C2)no1 (stereo not drawn) [4.02] | 10 | 8 | 10 | 7 | 0
9 | Cc1cc(C(F)(F)S(=O)(=O)C2=NOC(C)(C)C2)no1 [4.03] | 9 | 10 |  | 10 | 7
10 | CC1(C)CC(S(=O)(=O)C(CC=C(F)F)c2c(F)cccc2F)=NO1 (stereo not drawn) [Compound No. 1.04] | 0 | 7 | 5 | 2 | 0
11 | CC1(C)CC(S(=O)(=O)C(C(=O)C2CC2)c2c(F)cccc2F)=NO1 (stereo not drawn) [Compound No. 1.54] | 0 | 8 | 8 | 8 | 0
12 | CC1(C)CC(S(=O)(=O)C(C(=O)C(F)F)c2c(F)cccc2F)=NO1 (stereo not drawn) [Compound No. 1.57] | 9 | 8 | 10 | 8 | 6
13 | C=C(OC(C)=O)C(Cl)(c1c(F)cccc1F)S(=O)(=O)C1=NOC(C)(C)C1 (stereo not drawn) [Compound No. 1.58] | 5 | 8 | 9 | 7 | 3
14 | CC1(C)CC(S(=O)(=O)C(C(=O)CCl)c2c(F)cccc2F)=NO1 (stereo not drawn) [Compound No. 1.60] | 7 | 9 | 10 | 9 | 0
15 | CC(=O)O/C(C)=C(/c1c(F)cccc1F)S(=O)(=O)C1=NOC(C)(C)C1 [Compound No. 1.98, acetic acid 2-(2,6-difluoro-phenyl)-2-(5,5-dimethyl-4,5-dihydroisoxazole-3-sulfonyl)-1-methyl-vinyl ester] | 7 | 8 | 9 | 9 | 4
16 | COc1c(C(F)(F)S(=O)(=O)C2=NOC(C)(C)C2)c(C(F)(F)F)nn1C [Compound No. 2.23, 3-[difluoro-(5-methoxy-1-methyl-3-trifluoromethyl-1H-pyrazol-4-yl)-methanesulfonyl]-5,5-dimethyl-4,5-dihydroisoxazole] | 8 | 7 | 8 | 9 | 3
17 | Cc1nn(C)c(OCC(F)(F)F)c1C(F)S(=O)(=O)C1=NOC(C)(C)C1 (stereo not drawn) [Compound No. 2.24] | 10 | 10 |  | 10 | 5
18 | Cn1nc(C(F)(F)F)c(C([S+]([O-])C2=NOC(C)(C)C2)C(F)(F)F)c1OCC(F)(F)F (stereo not drawn) [Compound No. 2.35, 5,5-dimethyl-3-{2,2,2-trifluoro-1-[1-methyl-5-(2,2,2-trifluoro-ethoxy)-3-trifluoromethyl-1H-pyrazol-4-yl]-ethanesulfinyl}-4,5-dihydro-isoxazole] | 10 | 10 | 9 | 5 | 0
